Tests used:
[1] = molecular target: CK1δ (Homo sapiens (Human), UniProt P48730); experiment: CK1δ kinase assay (Caliper LABCHIP electrophoretic separation of fluoresceinated peptide substrate and product); type: biochemical; conditions: 200 pM enzyme, 50 μM ATP, 22 hours at room temperature
In short: (§1)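 Kinase reactions ran 22 h at room temperature, were stopped with EDTA, and phosphorylated product was separated electrophoretically from unphosphorylated fluoresceinated peptide. Compounds were tested at eleven concentrations from 10 mM DMSO stocks. IC50 by non-linear regression.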

[2] = molecular target: CK1ε (Homo sapiens (Human), UniProt P49674); experiment: CK1ε kinase assay (Caliper LABCHIP electrophoretic separation of fluoresceinated peptide substrate and product); type: biochemical; conditions: 200 pM enzyme, 50 μM ATP, 22 hours at room temperature
Chain of CK1ε (P49674 whole entry): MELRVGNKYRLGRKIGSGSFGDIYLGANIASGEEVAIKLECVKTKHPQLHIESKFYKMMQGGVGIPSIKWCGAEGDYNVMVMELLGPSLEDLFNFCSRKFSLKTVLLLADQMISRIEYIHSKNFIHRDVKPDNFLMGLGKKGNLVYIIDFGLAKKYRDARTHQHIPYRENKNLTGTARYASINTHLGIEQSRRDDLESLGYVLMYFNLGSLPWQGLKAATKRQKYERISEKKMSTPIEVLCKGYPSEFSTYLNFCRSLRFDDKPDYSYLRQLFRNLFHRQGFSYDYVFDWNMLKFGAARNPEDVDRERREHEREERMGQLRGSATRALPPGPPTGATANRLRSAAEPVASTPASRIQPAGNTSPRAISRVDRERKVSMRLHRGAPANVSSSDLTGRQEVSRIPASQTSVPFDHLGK
In short: as §1

Chain of CK1δ (P48730 whole entry): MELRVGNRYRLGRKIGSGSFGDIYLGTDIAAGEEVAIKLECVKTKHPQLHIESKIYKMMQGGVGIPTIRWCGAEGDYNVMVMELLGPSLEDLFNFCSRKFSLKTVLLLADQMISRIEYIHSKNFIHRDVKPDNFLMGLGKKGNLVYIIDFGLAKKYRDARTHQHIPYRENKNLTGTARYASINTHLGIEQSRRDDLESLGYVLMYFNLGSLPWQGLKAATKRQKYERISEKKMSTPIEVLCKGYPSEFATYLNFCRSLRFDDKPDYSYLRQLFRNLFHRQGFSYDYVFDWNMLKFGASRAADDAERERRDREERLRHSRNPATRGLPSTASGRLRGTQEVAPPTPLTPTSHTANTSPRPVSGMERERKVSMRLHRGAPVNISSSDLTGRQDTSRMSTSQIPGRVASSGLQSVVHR

| SMILES | IC50 [1] [nM] | IC50 [2] [nM] |
| --- | --- | --- |
| O=C(Nc1cn2nc(-c3c(-c4ccc(F)cc4)nc4ccccn34)ccc2n1)c1ccon1 [Compound 208, N-(6-(2-(4-fluorophenyl)imidazo[1,2-a]pyridin-3-yl)imidazo[1,2-b]pyridazin-2-yl)isoxazole-3-carboxamide] | 1.59 | 17 |
| CC(C)(C)C(=O)Nc1cc(C(=O)Nc2cn3nc(-c4c(-c5ccc(F)cc5)nc5ccccn45)ccc3n2)ccn1 [Compound 192, N-(6-(2-(4-fluorophenyl)imidazo[1,2-a]pyridin-3-yl)imidazo[1,2-b]pyridazin-2-yl)-2-pivalamidoisonicotinamide] | 0.096 | 1.06 |
| Cc1nc(-c2ccc(F)cc2)c(-c2ccc3nc(NC(=O)c4ccc(F)nc4)cn3n2)n1C [Compound 321, 6-fluoro-N-(6-(4-(4-fluoro-phenyl)-1,2-dimethyl-1H-imidazol-5-yl)imidazo[1,2-b]pyridazin-2-yl)nicotinamide] | 0.152 | 1.97 |
| O=C(Nc1cn2nc(-c3c(-c4ccc(F)cc4)nc4ccccn34)ccc2n1)c1cc(Cl)ncc1C(F)(F)F [Compound 199, 2-chloro-N-(6-(2-(4-fluorophenyl)imidazo[1,2-a]pyridin-3-yl)imidazo[1,2-b]pyridazin-2-yl)-5-(trifluoromethyl) isonicotinamide] | 3.24 | 16.3 |
| Cc1cc(Cn2cnc(-c3ccc(F)cc3)c2-c2ccc3nc(NC(=O)C(C)(C)C)cn3n2)no1 [Compound 278, N-(6-(4-(4-fluorophenyl)-1-((5-methyl-isoxazol-3-yl)ylmethyl)-1H-imidazol-5-yl)imidazo[1,2-b]pyridazin-2-yl)pivalamide] | 0.444 | 5.43 |
| Cc1nc(-c2ccc(F)cc2)c(-c2ccc3nc(NC(=O)c4cnc[nH]4)cn3n2)n1C [Compound 380, N-(6-(4-(4-fluorophenyl)-1,2-dimethyl-1H-imidazol-5-yl)imidazo[1,2-b]pyridazin-2-yl)-1H-imidazole-5-carboxamide] | 5.23 | 36.1 |
| Cc1c(C(=O)Nc2cn3nc(-c4c(-c5ccc(F)cc5)nc(C)n4C)ccc3n2)cnn1C [Compound 381, N-(6-(4-(4-fluorophenyl)-1,2-dimethyl-1H-imidazol-5-yl)imidazo[1,2-b]pyridazin-2-yl)-1,5-dimethyl-1H-pyrazole-4-carboxamide] | 0.754 | 3.74 |
| Cc1nc(-c2ccc(F)cc2)c(-c2ccc3nc(NC(=O)c4cc5ccccc5cn4)cn3n2)n1C [Compound 311, N-(6-(4-(4-fluorophenyl)-1,2-dimethyl-1H-imidazol-5-yl)imidazo[1,2-b]pyridazin-2-yl) isoquinoline-3-carboxamide] | 33.9 | 46.9 |
| Cc1nc(-c2ccc(Cl)cc2)c(-c2ccc3nc(NC(=O)c4ccnc(F)c4)cn3n2)n1CCF [Compound 293, N-(6-(4-(4-chlorophenyl)-1-(2-fluoroethyl)-2-methyl-1H-imidazol-5-yl)imidazo[1,2-b]pyridazin-2-yl)-2-fluoroisonicotinamide] | 0.109 | 1.28 |
| Cc1nc(-c2ccc(F)cc2)c(-c2ccc3nc(NC(=O)c4sc(-c5cccnc5)nc4C(F)(F)F)cn3n2)n1C [Compound 404, N-(6-(4-(4-Fluorophenyl)-1,2-dimethyl-1H-imidazol-5-yl)imidazo[1,2-b]pyridazin-2-yl)-2-(pyridin-3-yl)-4-(trifluoromethyl)thiazole-5-carboxamide] | 1.04 | 4.21 |
| Cc1nc(-c2ccc(F)cc2)c(-c2ccc3nc(NC(=O)c4cocn4)cn3n2)n1C [Compound 355, N-(6-(4-(4-fluorophenyl)-1,2-dimethyl-1H-imidazol-5-yl)imidazo[1,2-b]pyridazin-2-yl)-1,3-oxazole-4-carboxamide] | 3.8 | 38.7 |

Results, then the compound that gave them:

| IC50 [1] [nM] | IC50 [2] [nM] | SMILES |
| --- | --- | --- |
| 0.314 | 3.17 | Cn1cc(Cn2cnc(-c3ccc(F)cc3)c2-c2ccc3nc(NC(=O)c4ccnc(F)c4)cn3n2)cn1 [Compound 259, 2-fluoro-N-(6-(4-(4-fluorophenyl)-1-((1-methyl-1H-pyrazol-4-yl)methyl)-1H-imidazol-5-yl)imidazo[1,2-b]pyridazin-2-yl) isonicotinamide] |
| 1.75 | 10.1 | O=C(Nc1cn2nc(-c3c(-c4ccc(F)cc4)nc(C4CC4)n3C3CCN(C(=O)CC(F)(F)F)CC3)ccc2n1)c1ccnc(F)c1 [Compound 127, N-(6-(2-cyclopropyl-4-(4-fluorophenyl)-1-(1-(3,3,3-trifluoropropanoyl)piperidin-4-yl)-1H-imidazol-5-yl)imidazo [1,2-b]pyridazin-2-yl)-2-fluoroisonicotinamide] |
| 0.302 | 2.25 | O=C(Nc1cn2nc(-c3c(-c4ccc(F)cc4)ncn3C3CCN(CCC(F)(F)F)CC3)ccc2n1)c1ccncc1 [Compound 4, N-(6-(4-(4-fluorophenyl)-1-(1-(3,3,3-trifluoropropyl)piperidin-4-yl)-1H-imidazol-5-yl)imidazo[1,2-b]pyridazin-2-yl)isonicotinamide] |
| 1.15 | 18 | Cn1cnc(Cn2cnc(-c3ccc(F)cc3)c2-c2ccc3nc(NC(=O)c4ccnc(F)c4)cn3n2)c1 [Compound 253, 2-fluoro-N-(6-(4-(4-fluorophenyl)-1-((1-methyl-1H-imidazol-4-yl)methyl)-1H-imidazol-5-yl)imidazo[1,2-b]pyridazin-2-yl) isonicotinamide] |
| 0.136 | 12.4 | COCCN1CCC(n2cnc(-c3ccc(F)cc3)c2-c2ccc3nc(NC(=O)c4ccnc(F)c4)cn3n2)CC1 [Compound 34, 2-fluoro-N-(6-(4-(4-fluorophenyl)-1-(1-(2-methoxyethyl)piperidin-4-yl)-1H-imidazol-5-yl)imidazo[1,2-b]pyridazin-2-yl)isonicotinamide] |
| 0.4 | 2.3 | O=C(Nc1cn2nc(-c3c(-c4ccc(F)cc4)nc4n3CCN(CCC(F)(F)F)C4)ccc2n1)c1ccnc(F)c1 [Compound 478, 2-Fluoro-N-(6-(2-(4-fluorophenyl)-7-(3,3,3-trifluoropropyl)-5,6,7,8-tetrahydroimidazo[1,2-a]pyrazin-3-yl)imidazo[1,2-b]pyridazin-2-yl)isonicotinamide] |
| 0.742 | 11.2 | O=C(Nc1cn2nc(-c3c(-c4ccc(F)cc4)ncn3C3CCN(CC4C[C@@H]5CC[C@H]4C5)CC3)ccc2n1)c1ccnc(F)c1 (stereo partly drawn) [Compound 31, N-(6-(1-(1-((1S,4R)-bicyclo[2.2.1]heptan-2-ylmethyl)piperidin-4-yl)-4-(4-fluorophenyl)-1H-imidazol-5-yl)imidazo[1,2-6]pyridazin-2-yl)-2-fluoroisonicotinamide] |
| 0.4 | 1.3 | O=C(Nc1cn2nc(-c3c(-c4ccc(F)cc4)nc4n3CCC4)ccc2n1)c1cccc(-c2cccnc2)c1 [Compound 440, N-(6-(2-(4-Fluorophenyl)-6,7-dihydro-5H-pyrrolo[1,2-a]imidazol-3-yl)imidazo[1,2-b]pyridazin-2-yl)-3-(pyridin-3-yl)benzamide] |
| 0.295 | 3.06 | O=C(Nc1cn2nc(-c3c(-c4ccc(F)cc4)ncn3C3CCN(Cc4ccncc4)CC3)ccc2n1)c1ccnc(F)c1 [Compound 16, 2-fluoro-N-(6-(4-(4-fluorophenyl)-1-(1-(pyridin-4-ylmethyl)piperidin-4-yl)-1H-imidazol-5-yl)imidazo[1,2-b]pyridazin-2-yl)isonicotinamide] |
| 0.344 | 1.91 | Cc1nc(-c2ccc(F)cc2)c(-c2ccc3nc(NC(=O)c4ccnc(N5CCOCC5)c4)cn3n2)n1C [Compound 324, N-(6-(4-(4-fluorophenyl)-1,2-dimethyl-1H-imidazol-5-yl)imidazo[1,2-b]pyridazin-2-yl)-2-morpholinoisonicotin-amide] |
| 0.833 | 12.2 | O=C(Nc1cn2nc(-c3c(-c4ccc(F)cc4)nc4ccccn34)ccc2n1)C1CCN(c2ccncc2)CC1 [Compound 217, N-(6-(2-(4-fluorophenyl)imidazo[1,2-a]pyridin-3-yl)imidazo[1,2-b]pyridazin-2-yl)-1-(pyridin-4-yl)piperidine-4-carboxamide] |
| 0.361 | 0.798 | CC(C)(F)C(=O)N1CCC(n2cnc(-c3ccc(F)cc3)c2-c2ccc3nc(NC(=O)c4ccnc(F)c4)cn3n2)CC1 [Compound 64, 2-fluoro-N-(6-(1-(1-(2-fluoro-2-methylpropanoyl)piperidin-4-yl)-4-(4-fluorophenyl)-1H-imidazol-5-yl)imidazo[1,2-6]pyridazin-2-yl)isonicotinamide] |
| 2.79 | 2.93 | O=C(Nc1cn2nc(-c3c(-c4ccc(F)cc4)ncn3C3CCN(C(=O)CC(F)(F)F)CC3)ccc2n1)c1ccnc(F)c1 [Compound 42, 2-fluoro-N-(6-(4-(4-fluorophenyl)-1-(1-(3,3,3-trifluoropropanoyl)piperidin-4-yl)-1H-imidazol-5-yl)imidazo[1,2-b]pyridazin-2-yl)isonicotinamide] |
| 0.847 | 0.283 | O=C(Nc1cn2nc(-c3c(-c4ccc(F)cc4)ncn3C3CCN(Cc4ccon4)CC3)ccc2n1)c1ccnc(F)c1 [Compound 12] |
| 0.847 | 2.27 | O=C(Nc1cn2nc(-c3c(-c4ccc(F)cc4)ncn3C3CCN(CCC(F)(F)F)CC3)ccc2n1)c1ccnc(F)c1 [Compound 10, 2-fluoro-N-(6-(4-(4-fluorophenyl)-1-(1-(3,3,3-trifluoropropyl)piperidin-4-yl)-1H-imidazol-5-yl)imidazo[1,2-b]pyridazin-2-yl)isonicotinamide] |
| 0.393 | 2.47 | O=C(Nc1cn2nc(-c3c(-c4ccc(F)cc4)ncn3C3CCN(C(=O)c4ccon4)CC3)ccc2n1)c1cc(F)nc(F)c1 [Compound 93, 2,6-difluoro-N-(6-(4-(4-fluorophenyl)-1-(1-(isoxazole-3-carbonyl)piperidin-4-yl)-1H-imidazol-5-yl)imidazo[1,2-b]pyridazin-2-yl)isonicotinamide] |
